Results reported in patent US20070219203A1, “Arylalkylamino-substituted quinazoline analogues” (Neurogen Corporation, priority 2004, published 2007).

The molecules below were run against T1, human capsaicin receptor (Homo sapiens, UniProt Q8NER1) (assay: Calcium mobilization assay, antagonist activity (Example 6)). Conditions: Table I; 50% decrease in fluorescence response of cells expressing human capsaicin receptor exposed to capsaicin.
T1 construct: expressed in transfected cells
Type: cell-based
Procedure: A cDNA encoding full length human capsaicin receptor (SEQ ID NO:1, 2 or 3 of U.S. Pat. No. 6,482,611) is subcloned in the plasmid pBK-CMV (Stratagene, La Jolla, Calif.) for recombinant expression in mammalian cells.
Human embryonic kidney (HEK293) cells are transfected with the pBK-CMV expression construct encoding the full length human capsaicin receptor using standard methods. The transfected cells are selected for two weeks in media containing G418 (400 μg/ml) to obtain a pool of stably transfected cells. Independent clones are isolated from this pool by limiting dilution to obtain clonal stable cell lines for use in subsequent experiments.
Cells transfected with expression plasmids (as described in Example 4) and thereby expressing human capsaicin receptor are seeded and grown to 70-90% confluency in FALCON black-walled, clear-bottomed 96-well plates (#3904, BECTON-DICKINSON, Franklin Lakes, N.J.). The culture medium is emptied from the 96 well plates and […] calcium sensitive dye (Molecular Probes, Eugene, Oreg.) is added to each well (dye solution: 1 mg […], 440 μL DMSO and 440 μl 20% pluronic acid in DMSO, diluted 1:250 in Krebs-Ringer HEPES (KRH) buffer (25 mM HEPES, 5 mM KCl, 0.96 mM NaH2PO4, 1 mM MgSO4, 2 mM CaCl2, 5 mM glucose, 1 mM probenecid, pH 7.4), 50 μl diluted solution per well). Plates are covered with aluminum foil and incubated at 37° C. for 1-2 hours in an environment containing 5% CO2. After the incubation, the dye is emptied from the plates, and the cells are washed once with KRH buffer, and resuspended in KRH buffer.
To measure the ability of a test compound to agonize or antagonize a calcium mobilization response in cells expressing capsaicin receptors to capsaicin or other vanilloid agonist, the EC50 of the agonist capsaicin is first determined. An additional 20 μl of KRH buffer and 1 μl DMSO is added to each well of cells, prepared as described above. 100 μl capsaicin in KRH buffer is automatically transferred by the FLIPR instrument to each well. Capsaicin-induced calcium mobilization is monitored using either FLUOROSKAN ASCENT (Labsystems; Franklin, Mass.) or FLIPR (fluorometric imaging plate reader system; Molecular Devices, Sunnyvale, Calif.) instruments. Data obtained between 30 and 60 seconds after agonist application are used to generate an 8-point concentration response curve, with final capsaicin concentrations of 1 nM to 3 μM. KALEIDAGRAPH software (Synergy Software, Reading, Pa.) is used to fit the data to the equation: y=a*(1/(1+(b/x)^c)) to determine the 50% excitatory concentration (EC50) for the response. In this equation, y is the maximum fluorescence signal, x is the concentration of the agonist or antagonist (in this case, capsaicin), a is the Emax, b corresponds to the EC50 value and c is the Hill coefficient. Determination of Agonist Activity
Test compounds are dissolved in DMSO, diluted in 20 μl KRH buffer so that the final concentration of test compounds in the assay well is between 1 μM and 5 μM, and added to cells prepared as described above. The 96 well plates containing prepared cells and test compounds are incubated in the dark, at room temperature for 0.5 to 6 hours. It is important that the incubation not continue beyond 6 hours. Just prior to determining the fluorescence response, 100 μl capsaicin in KRH buffer at twice the EC50 concentration determined as described above is automatically added by the FLIPR instrument to each well of the 96 well plate for a final sample volume of 200 μl and a final capsaicin concentration equal to the EC50. The final concentration of test compounds in the assay wells is between 1 μM and 5 μM. […] The concentration of antagonist required to provide a 50% decrease, relative to the response observed in the presence of capsaicin and without antagonist, is the IC50 for the antagonist, and is preferably below 1 micromolar, 100 nanomolar, 10 nanomolar or 1 nanomolar.

T1 sequence (Q8NER1 whole entry): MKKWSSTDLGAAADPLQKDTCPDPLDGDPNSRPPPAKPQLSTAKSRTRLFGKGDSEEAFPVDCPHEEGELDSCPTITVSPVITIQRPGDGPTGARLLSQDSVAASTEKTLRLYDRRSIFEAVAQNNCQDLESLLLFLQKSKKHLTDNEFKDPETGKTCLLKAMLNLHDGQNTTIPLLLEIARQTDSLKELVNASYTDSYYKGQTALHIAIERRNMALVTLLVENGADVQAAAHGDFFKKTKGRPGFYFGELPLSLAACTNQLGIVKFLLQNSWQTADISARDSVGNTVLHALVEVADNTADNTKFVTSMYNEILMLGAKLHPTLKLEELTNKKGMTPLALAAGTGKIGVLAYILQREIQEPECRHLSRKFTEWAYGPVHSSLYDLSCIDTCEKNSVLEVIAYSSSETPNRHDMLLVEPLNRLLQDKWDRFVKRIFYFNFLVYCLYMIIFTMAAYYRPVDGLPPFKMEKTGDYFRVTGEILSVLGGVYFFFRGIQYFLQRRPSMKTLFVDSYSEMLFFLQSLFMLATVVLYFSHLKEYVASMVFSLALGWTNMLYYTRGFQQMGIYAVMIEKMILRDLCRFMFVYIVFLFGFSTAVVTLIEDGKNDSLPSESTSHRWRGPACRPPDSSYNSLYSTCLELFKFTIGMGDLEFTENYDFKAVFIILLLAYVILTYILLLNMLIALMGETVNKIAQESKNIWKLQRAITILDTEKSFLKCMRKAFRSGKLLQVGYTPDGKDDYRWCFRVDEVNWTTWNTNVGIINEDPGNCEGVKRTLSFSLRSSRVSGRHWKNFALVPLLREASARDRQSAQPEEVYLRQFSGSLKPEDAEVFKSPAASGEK

IC50, ≤ 1000 nM:
FC(F)(F)c1cccnc1-c1ccc2c(NCCc3cccc(Cl)c3)ncnc2c1 [Compound 13, N-[2-(3-chlorophenyl)ethyl]-7-{3-(trifluoromethyl)pyridin-2-yl]quinazolin-4-amine]
CC(C)COCc1nc(NCCc2ccccc2C(F)(F)F)c2ccc(-c3ncccc3C(F)(F)F)nc2n1 [Compound 38, 2-(isobutoxymethyl)-N-{2-[2-(trifluoromethyl)phenyl]ethyl}-7-[3-(trifluoromethyl)pyridin-2-yl]pyrido[2,3-d]pyrimidin-4-amine]
CC(C)COCc1nc(NCCc2ccccc2F)c2ccc(-c3ncccc3Cl)nc2n1 [Compound 44, 7-(3-chloropyridin-2-yl)-N-[2-(2-fluorophenyl)ethyl]-2-(isobutoxymethyl)pyrido[2,3-d]pyrimidin-4-amine]
CC(CNc1ncnc2cc(-c3ncccc3C(F)(F)F)ccc12)c1ccccc1 (stereo not drawn) [Compound 18, N-(2-phenylpropyl)-7-[3-(trifluoromethyl)pyridin-2-yl]quinazolin-4-amine]
CC(C)COCc1nc(NCCc2ccc(F)cc2)c2ccc(-c3ncccc3Cl)nc2n1 [Compound 46, 7-(3-chloropyridin-2-yl)-N-[2-(4-fluorophenyl)ethyl]-2-(isobutoxymethyl)pyrido[2,3-d]pyrimidin-4-amine]
CCOCc1nc(NCCc2cccc(Cl)c2)c2ccc(-c3ncccc3Cl)nc2n1 [Compound 55, N-[2-(3-chlorophenyl)ethyl]-7-(3-chloropyridin-2-yl)-2-(ethoxymethyl)pyrido[2,3-d]pyrimidin-4-amine]
FC(F)(F)c1cccnc1-c1ccc2c(NCCc3c(Cl)cccc3Cl)ncnc2c1 [Compound 19, N-[2-(2,6-dichlorophenyl)ethyl]-7-[3-(trifluoromethyl)pyridin-2-yl]quinazolin-4-amine]
CC(C)COCc1nc(NCCc2ccc(C(F)(F)F)cc2)c2ccc(-c3ncccc3C(F)(F)F)nc2n1 [Compound 40, 2-(isobutoxymethyl)-N-{2-[4-(trifluoromethyl)phenyl]ethyl}-7-[3-(trifluoromethyl)pyridin-2-yl]pyrido[2,3-d]pyrimidin-4-amine]

Same assay, conditions: Table II; 50% decrease in fluorescence response of cells expressing human capsaicin receptor exposed to capsaicin

IC50, ≤ 1000 nM:
CC1(C)CCCN(Cc2nc(NCCc3ccccc3)c3ccc(-c4ncccc4C(F)(F)F)cc3n2)C1 [Compound 100, [2(3,3-Dimethyl-piperidin-1-ylmethyl)-7-(3-trifluoromethyl-pyridin-2-yl)-quinazolin-4-yl]-phenethyl-amine]
FC(F)(F)c1cccnc1-c1ccc2c(NCCc3ccccc3)nc(CN3CCSCC3)nc2c1 [Compound 97, Phenethyl-[2-thiomorpholin-4-ylmethyl-7-(3-trifluoromethyl-pyridin-2-yl)-quinazolin-4-yl]-amine]
CC1CC(C)CN(Cc2nc(NCCc3ccccc3)c3ccc(-c4ncccc4C(F)(F)F)cc3n2)C1 (stereo not drawn) [Compound 176, [2-(3,5-Dimethyl-piperidin-1-ylmethyl)-7-(3-trifluoromethyl-pyridin-2-yl)-quinazolin-4-yl]-phenethyl-amine]
FC(F)(F)c1cccnc1-c1ccc2c(NCCCc3ccccc3)ncnc2c1 [Compound 63, (3-Phenyl-propyl)-[7-(3-trifluoromethyl-pyridin-2-yl)-quinazolin-4-yl]-amine]
CCCCCN(CCCCC)Cc1nc(NCCc2ccccc2C)c2ccc(-c3ncccc3C(F)(F)F)cc2n1 [Compound 171, [2-Dipentylaminomethyl-7-(3-trifluoromethyl-pyridin-2-yl)-quinazolin-4-yl]-(2-o-tolyl-ethyl)-amine]
FC(F)(F)c1cccnc1-c1ccc2c(NC3Cc4ccccc4C3)ncnc2c1 [Compound 76, Indan-2-yl-[7-(3-trifluoromethyl-pyridin-2-yl)-quinazolin-4-yl]-amine]
Cc1cccc(CCNc2ncnc3cc(-c4ncccc4C(F)(F)F)ccc23)c1 [Compound 66, (2-m-Tolyl-ethyl)-[7-(3-trifluoromethyl-pyridin-2-yl)-quinazolin-4-yl]-amine]
